Laboratory results reported in patent publication US9957214B2, “Multifunctional radical quenchers” (ARIZONA BOARD OF REGENTS ON BEHALF OF ARIZONA STATE …, priority 2012, dated 2018).

Legend:
[1] = target: bovine heart mitochondrial complex I (Bos taurus, UniProt P03887+P17694+P42026); experiment: Complex I (NADH-Q1 oxidoreductase) inhibition in submitochondrial particles; type: biochemical; conditions: submitochondrial particles, 30° C.; for IC50: read-out: Complex I inhibition IC50; for Emax: read-out: Complex I inhibition Imax
Chain of bovine heart mitochondrial complex I (P25708 21-464): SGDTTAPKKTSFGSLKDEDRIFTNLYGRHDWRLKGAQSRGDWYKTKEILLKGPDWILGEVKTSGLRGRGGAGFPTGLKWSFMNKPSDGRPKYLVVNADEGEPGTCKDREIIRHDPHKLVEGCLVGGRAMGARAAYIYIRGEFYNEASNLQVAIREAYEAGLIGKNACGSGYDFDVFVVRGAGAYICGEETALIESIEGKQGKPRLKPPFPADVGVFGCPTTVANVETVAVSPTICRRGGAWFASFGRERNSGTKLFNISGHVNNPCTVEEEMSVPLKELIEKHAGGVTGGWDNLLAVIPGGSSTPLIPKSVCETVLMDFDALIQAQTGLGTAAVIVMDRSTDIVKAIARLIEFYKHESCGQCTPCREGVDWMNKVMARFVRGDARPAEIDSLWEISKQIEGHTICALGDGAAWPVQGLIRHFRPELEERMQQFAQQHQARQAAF
Chain of bovine heart mitochondrial complex I (P42026 38-216): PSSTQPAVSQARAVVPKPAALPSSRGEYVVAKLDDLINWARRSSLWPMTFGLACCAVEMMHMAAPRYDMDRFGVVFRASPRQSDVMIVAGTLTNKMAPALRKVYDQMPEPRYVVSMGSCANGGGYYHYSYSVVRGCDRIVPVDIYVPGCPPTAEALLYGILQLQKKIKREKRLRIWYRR
Chain of bovine heart mitochondrial complex I (P17694 34-463): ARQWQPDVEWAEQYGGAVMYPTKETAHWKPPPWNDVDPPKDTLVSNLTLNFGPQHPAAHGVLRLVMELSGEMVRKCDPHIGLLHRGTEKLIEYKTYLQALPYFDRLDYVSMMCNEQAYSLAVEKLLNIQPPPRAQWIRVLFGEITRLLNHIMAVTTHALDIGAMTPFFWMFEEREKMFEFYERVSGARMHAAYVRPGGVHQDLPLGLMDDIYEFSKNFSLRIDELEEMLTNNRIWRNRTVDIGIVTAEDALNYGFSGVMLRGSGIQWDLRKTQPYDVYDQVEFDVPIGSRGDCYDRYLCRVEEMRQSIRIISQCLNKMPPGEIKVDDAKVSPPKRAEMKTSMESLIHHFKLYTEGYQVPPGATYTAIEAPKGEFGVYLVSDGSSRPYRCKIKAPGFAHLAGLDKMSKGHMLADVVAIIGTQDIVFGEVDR
Chain of bovine heart mitochondrial complex I (P15690 24-727, further chain): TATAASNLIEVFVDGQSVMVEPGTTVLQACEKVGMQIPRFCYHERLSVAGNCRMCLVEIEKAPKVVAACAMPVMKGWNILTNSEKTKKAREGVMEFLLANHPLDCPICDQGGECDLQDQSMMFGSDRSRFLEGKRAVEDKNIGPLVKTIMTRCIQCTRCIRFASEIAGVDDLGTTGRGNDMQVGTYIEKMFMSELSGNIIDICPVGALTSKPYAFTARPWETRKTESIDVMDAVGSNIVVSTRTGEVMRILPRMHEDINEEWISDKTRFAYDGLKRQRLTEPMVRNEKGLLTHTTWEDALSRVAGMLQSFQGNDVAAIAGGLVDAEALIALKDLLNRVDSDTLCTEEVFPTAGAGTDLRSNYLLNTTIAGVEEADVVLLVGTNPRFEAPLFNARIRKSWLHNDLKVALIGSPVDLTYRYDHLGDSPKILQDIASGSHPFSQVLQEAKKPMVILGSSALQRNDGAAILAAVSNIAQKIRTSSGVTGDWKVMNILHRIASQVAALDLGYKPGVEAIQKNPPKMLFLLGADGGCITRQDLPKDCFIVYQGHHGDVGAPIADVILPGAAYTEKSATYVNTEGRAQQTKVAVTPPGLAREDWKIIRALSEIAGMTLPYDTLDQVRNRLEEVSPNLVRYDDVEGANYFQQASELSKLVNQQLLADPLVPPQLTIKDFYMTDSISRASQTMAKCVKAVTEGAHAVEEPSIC
Chain of bovine heart mitochondrial complex I (P03887 whole entry): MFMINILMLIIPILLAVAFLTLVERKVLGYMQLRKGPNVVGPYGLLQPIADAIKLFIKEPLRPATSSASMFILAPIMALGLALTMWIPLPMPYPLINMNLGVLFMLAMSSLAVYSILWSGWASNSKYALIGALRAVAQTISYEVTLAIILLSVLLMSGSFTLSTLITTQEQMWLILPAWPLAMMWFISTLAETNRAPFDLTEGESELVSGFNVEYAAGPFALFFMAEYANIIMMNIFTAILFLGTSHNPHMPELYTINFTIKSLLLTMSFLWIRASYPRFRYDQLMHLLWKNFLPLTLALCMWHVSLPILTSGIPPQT
Chain of bovine heart mitochondrial complex I (P42028 37-212, further chain): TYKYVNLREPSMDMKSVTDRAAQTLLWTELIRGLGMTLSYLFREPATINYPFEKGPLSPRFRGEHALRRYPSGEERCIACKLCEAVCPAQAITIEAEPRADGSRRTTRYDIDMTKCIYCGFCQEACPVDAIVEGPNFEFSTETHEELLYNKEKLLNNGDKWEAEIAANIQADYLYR

[2] = test system: differentiated SH-SY5Y cells; experiment: Neuroprotection against Aβ 1-42 oligomer induced cytotoxicity (WST-1); type: cell-based, human; conditions: Aβ 1-42 oligomers 2.5 μM, 48 h
Description: FIG. 8. Effect of nitrogen-containing 1,4-benzoquinone 40 and geldanamycin on Aβ 1-42 induced neurotoxicity in differentiated SH-SY5Y cells.
The cytotoxic effect of Aβ 1-42 oligomers (2.5 μM) on differentiated SH-SY5Y cells was evaluated in presence and absence of the test compounds. Sequential treatment of the human SH-SY5Y neuroblastoma cell line with retinoic acid and brain-derived neurotrophic factor (BDNF) generates nearly pure populations of human neuron-like cells, thus providing a model for the study of neuronal differentiation and neuroprotection as previously described, with some modifications (Encinas et al. (2000) J. Neurochem. 75, 991-1003). […] The plates were incubated at 37° C. in an atmosphere having 95% humidity and 5% CO2 for 48 h and then cell viability was measured using a WST-1 Kit (Roche Diagnostics). […] Color intensity was measured with a 96-well plate at 450 nm using a SpectraMax M5 microplate reader (Molecular Devices, Sunnyvale, Calif.). Results are expressed as percentage of viable cells relative to untreated control after subtracting background. Data are expressed as means±S.E.M. (n=3).
Synthetic human Aβ 1-42 was purchased from AnaSpec (San Jose, Calif.). […] Aβ 1-42 peptide content was determined by the method of bicinchoninic acid assay (micro-BCA kit, Pierce) using BSA as reference.

[3] = test system: BT474 cell line and FRDA lymphocytes; experiment: Cytotoxicity assay (WST-1); type: cell-based, human; conditions: 48 h, varying concentrations
Description: FIG. 5. Effect of compound 40 and geldanamycin on cell viability was compared to vehicle (DMSO) after treatment with varying concentrations for 48 h in BT474 cell line and FRDA lymphocytes, respectively. Each measurement is an average of three independent experiments run in quartet.
[…] geldanamycin were tested for their cytotoxicity in human breast cancer cell line BT474 and FRDA lymphocytes using the vital mitochondrial function assay WST-1 Kit (Roche Diagnostics). BT474 cells (2000 cell/well) and FRDA lymphocytes (5000 cell/well) (100 μl) were seeded in 96-well plates and incubated for 48 h. Compound 40 or geldanamycin at varying concentrations were added and the plates were returned to the incubator for 48 h. Cell viability was determined using a WST-1 Kit (Roche Diagnostics) following the manufacturer's instructions. WST-1 reagent (10 μL) was added to each well, containing 200 μL media and further incubation for 2 h (BT474) and 4 h (FRDA lymphocytes). Color intensity was measured at 450 nm using a SpectraMax M5 microplate reader (Molecular Devices, Sunnyvale, Calif., USA). Results are expressed as percentage of viable cells relative to untreated control after subtracting background. Data are expressed as means±S.E.M. (n=3).

Work on `CCCCCCCCCCCCCC1=C(OC)C(=O)C=C(NCCCC(=O)OC(C)(C)C)C1=O` [Compound 7, tert-butyl 4-(4-methoxy-3,6-dioxo-5-tridecylcyclohexa-1,4-dienylamino)butanoate] yielded an IC50 [1] of 540 ± 17 µM and an Emax [1] greater than 85%.

Work on `CCCCCCCCCCCCCC1=C(OC)C(=O)C=C(NCCCC(=O)OCCCCCC)C1=O` [Compound 18, Hexyl 4-(4-methoxy-3,6-dioxo-5-tridecylcyclohexa-1,4-dienylamino)butanoate] yielded an IC50 [1] of 513 ± 38 µM and an Emax [1] greater than 85%.

With `COC1=C2CCCCCCCCCCCCCCCNC(=CC1=O)C2=O` [Compound 40] the “Effect on Aβ 1-42 induced cytotoxicity (in words)” value [2] was “decreased Aβ 1-42 induced cytotoxicity in a concentration dependent manner” and the “Cytotoxicity (in words)” value [3] was “no cytotoxicity”.
